One data set addresses E. Coli LeuRS (Escherichia coli (strain K12), UniProt P07813). Put plainly: Study 2 - Isothermal titration calorimetry (ITC). The class given is binding. The settings on record: 25° C., pH 7.5, mean ± SD. As to the method: Escherichia coli BL21(DE3) cells transformed with plasmid pQE-60 containing the open-reading frame sequence of one targeted aaRS (i.e., LeuRS) were induced with 1 mM IPTG (isopropyl β-D-1-thiogalactopyranoside) for 3 hours at 37° C. Bacterial cells were harvested and lysed with 20 mM HEPES (4-(2-hydroxyethyl)-1-piperazinylethane-sulfonic acid) (pH 7.5), 300 mM NaCl, 15 mM imidazole and 1 mM DTT (1,4-dithio-D-threitol). The pathogenic aaRS was first purified by nickel affinity standard chromatography. The eluted protein was concentrated and then further purified by gel filtration using 50 mM HEPES (pH 7.5), 150 mM NaCl buffer.
ITC studies were carried out using a Microcal ITC200 instrument (GE Healthcare). Protein concentration was determined by spectrophotometry by measuring the absorbance at 280 nm using a theoretical molar extinction coefficient of 169,140 M^−1cm^−1. Ligand stock solutions were prepared in DMSO at 62.5 mM concentration. The titrations were performed at 25° C. with 7.5-100 μM E. Coli LeuRS in 50 mM HEPES, 150 mM NaCl, pH 7.5 buffer containing 1% DMSO (v/v). The protein solution in the 280 μL sample cell was titrated with the inhibitor solution (diluted to 75-3000 μM in the same buffer as the protein) using 1-2 μL injections every 120-140 seconds. All titrations were repeated at least two times. To correct for heats of dilution and mixing, the final baseline consisting of small peaks of identical size at the end of each experiment was subtracted. The experimental data were fitted to a theoretical titration curve (one site model) using MicroCal Origin 7 SR4 software.
Note that Compounds R-4.1 and S-4.1 (in Table 15, below) correspond to Compounds V-i and V-ii (in Tables 13 and 14, above), respectively.
A general note: In ITC the heat of successive injections is recorded.

Data set [1] concerns Acinetobacter baumannii B1931 clinical isolate. Put plainly: Study 4 - MIC by broth micro-dilution (CLSI). It is filed as cell-based. The procedure:
(§1) Minimum Inhibitory Concentrations (MICs) were determined by the broth micro-dilution method performed according to Clinical Laboratory Standards Institute guidelines. For testing, 5 mg/mL DMSO solutions were prepared by dissolving solids in DMSO. Standard antibiotics were prepared according to CLSI guidelines as 5 mg/mL stock solutions. Upon DMSO stock solutions preparation, the working solutions in MH media were prepared by adding 38.4 μL of stock solution to 1461.6 μL of MH media. Out of these working solutions 100 μL were transferred to wells in the third column of 96-well assay plates. Assay plates were previously filled with 50 μL of MH media in all wells except for the wells in the third column. Upon compounds and antibiotics addition, 50 μL was transferred from the third to the fourth column, then from the fourth to the fifth and so on.
(§2) MIC value was determined by visual inspection of bacterial growth within 96-well plates. The first column in which there was no visible growth of bacteria was determined as MIC value for compound or antibiotic tested in that particular row. ATCC strains were used as reference strains for which there is a determined value of MIC values for standard antibiotics. The assay is considered valid when MIC values for standard antibiotics are within CLSI designated range for ATCC strain tested.
For orientation: Broth dilution looks for growth in wells or tubes with falling amounts of substance.

Data set [2] has as its system Klebsiella pneumoniae ATCC 700603. Put plainly: Study 4 - MIC by broth micro-dilution (CLSI). It is filed as cell-based. The procedure:
as §1, §2

For data set [3], the system named is Pseudomonas aeruginosa ATCC 27853. Put plainly: Study 4 - MIC by broth micro-dilution (CLSI). It is filed as cell-based. As to the method:
as §1, §2

In data set [4] the test system is Haemophilus influenzae ATCC 49247. Put plainly: Study 4 - MIC by broth micro-dilution (CLSI). It is filed as cell-based. The note with it: G = H. influenzae ATCC 49247. The procedure: as §1, §2
Data set [5] concerns Enterobacter cloacae B1966 clinical isolate. Put plainly: Study 4 - MIC by broth micro-dilution (CLSI). The class given is cell-based. The procedure:
as §1, §2

The subject of data set [6] is Escherichia coli ATCC 25922. Put plainly: Study 4 - MIC by broth micro-dilution (CLSI). It is filed as cell-based. As to the method: as §1, §2
Data set [7] can be described thus: Human cell viability (cytotoxicity), ATP levels by CellTiter-Glo. The class given is cell-based. The note with it: HepG2 cells (ATCC HB-8065), 24 hours incubation, read-out: IC50 (μg/mL), Cytotoxicity in HepG2 ATCC HB-8065 Cell Line. As to the method: Compounds were assessed for potential non-specific cytotoxic effects against a human hepatic cell line (HepG2 ATCC HB-8065). 96-well plates were seeded with HepG2 cells in concentration of 15,000 cells per well in 100 μL of MEM growth media completed with 1% NEAA and 1% sodium pyruvate. Border wells were filled with 100 μL of sterile PBS. Two days upon cells incubation, the compounds were added. Compound dilutions were prepared in 96-well V-bottom plate in pure DMSO. Growth media from 5 plates were aspirated and replaced with 98.7 μL of fresh growth media. 1.28 μL of compounds prepared in V-bottom plates were transferred with multichannel pipette into test plates (78.1× dilution). Final DMSO concentration was 1.28% per well. In control wells, 1.28 μL of DMSO was added in 98.7 μL of media. Compounds were tested in duplicates. Cells were incubated with compounds for 24 hours when cell viability was assessed by measuring ATP levels. ATP levels were measured by adding 50 μL of CellTiter-Glo reagent to each well and after 5 minutes of incubation luminescence was measured with SpectraMax i3. The potential effect of tested compounds on cell viability was determined by comparing the signal obtained in presence of different concentrations of the compounds with those obtained in the presence of DMSO only. The potential effects were then calculated and presented as IC50 values (μg/mL).

For data set [8], the system named is Escherichia coli ATCC 25922 TolC deficient mutant (E. coli EFFLUX del). Put plainly: microbe, parasite or virus in culture. It is filed as cell-based. As to the method:
as §1, §2

[9] abbreviates: Klebsiella pneumoniae, ATCC700603.
[10] abbreviates: Pseudomonas aeruginosa, ATCC27853.
The mark [11] stands for this setting: Haemophilus influenzae, ATCC49247, read-out: MIC.

Values after ≈ are worked out from the molar mass of the structure shown. Like-named read-outs stand apart in the source and are kept apart here.

Chain of E. Coli LeuRS (P07813 whole entry): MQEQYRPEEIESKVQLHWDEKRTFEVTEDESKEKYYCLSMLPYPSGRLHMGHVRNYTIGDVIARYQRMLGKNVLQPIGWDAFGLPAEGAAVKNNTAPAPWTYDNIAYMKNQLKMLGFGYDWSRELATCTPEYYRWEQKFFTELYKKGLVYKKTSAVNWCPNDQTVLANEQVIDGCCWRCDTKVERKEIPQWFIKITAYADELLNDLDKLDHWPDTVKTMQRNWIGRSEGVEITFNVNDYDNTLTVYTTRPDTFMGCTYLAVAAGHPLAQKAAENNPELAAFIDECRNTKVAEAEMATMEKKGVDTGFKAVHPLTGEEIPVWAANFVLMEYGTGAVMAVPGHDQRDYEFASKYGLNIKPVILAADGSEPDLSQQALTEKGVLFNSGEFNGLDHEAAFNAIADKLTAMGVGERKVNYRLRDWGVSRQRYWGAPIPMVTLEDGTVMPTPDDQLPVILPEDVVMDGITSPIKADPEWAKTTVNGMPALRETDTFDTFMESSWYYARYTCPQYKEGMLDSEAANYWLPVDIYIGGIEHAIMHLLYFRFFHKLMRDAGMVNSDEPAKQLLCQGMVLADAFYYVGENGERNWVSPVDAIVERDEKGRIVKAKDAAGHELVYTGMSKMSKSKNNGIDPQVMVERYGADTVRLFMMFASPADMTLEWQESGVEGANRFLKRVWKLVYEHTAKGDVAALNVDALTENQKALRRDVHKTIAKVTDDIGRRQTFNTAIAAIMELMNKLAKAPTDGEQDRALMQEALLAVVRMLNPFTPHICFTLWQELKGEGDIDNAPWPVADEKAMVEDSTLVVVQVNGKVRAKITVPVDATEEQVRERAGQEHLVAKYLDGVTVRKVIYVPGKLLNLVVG

A word on the Kd: it is the equilibrium constant for the complex coming apart. Read a high Kd as a looser complex. Compound `CC(C)CC(N)C(=O)N[S+]([O-])c1cccc(OC(F)(F)F)c1` (stereo not drawn) [4.20] gave a Kd at E. Coli LeuRS of 1.39 ± 0.07 nM. In addition, the ΔG on E. Coli LeuRS is -12.08 ± 0.03 kcal/mol. Also, the ΔH at E. Coli LeuRS was -11.64 ± 0.45 kcal/mol. The MIC in data set [1] (Acinetobacter baumannii) was > 64 µg/mL; in [2] (setting [9]), > 64 µg/mL; in data set [3] (setting [10]) it was > 64 µg/mL; in [4] (setting [11]), 64 µg/mL (≈ 189 µM); in data set [5] (Enterobacter cloacae), > 64 µg/mL; in data set [6] (Escherichia coli, ATCC25922), 8 µg/mL (≈ 23.6 µM). In data set [8] (Escherichia coli, ATCC25922), the MIC worked out at 8 µg/mL (≈ 23.6 µM). Besides, the IC50 at 24 h in data set [7] was > 64 µg/mL.
As for `CC(C)CC(N)C(=O)N[S+]([O-])c1ccc(F)c(Cl)c1` (stereo not drawn) [4.37], the MIC in data set [1] (Acinetobacter baumannii) was 64 µg/mL (≈ 209 µM); in data set [2] (setting [9]) it was > 64 µg/mL; in data set [3] (setting [10]), > 64 µg/mL; in [4] (setting [11]), 32 µg/mL (≈ 104 µM); in data set [5] (Enterobacter cloacae), 64 µg/mL (≈ 209 µM); in data set [6] (Escherichia coli, ATCC25922), 8 µg/mL (≈ 26.1 µM). In addition, the MIC in data set [8] (Escherichia coli, ATCC25922) stood at 8 µg/mL (≈ 26.1 µM). The IC50 at 24 h in [7] was > 64 µg/mL.
As to `CC(C)CC(N)C(=O)N[S+]([O-])c1ccccc1C#N` (stereo not drawn) [4.30], the MIC in data set [1] (Acinetobacter baumannii) was found to be 8 µg/mL (≈ 28.6 µM); in data set [2] (setting [9]) it was 32 µg/mL (≈ 115 µM); in [3] (setting [10]), 32 µg/mL (≈ 115 µM); in data set [4] (setting [11]) it was 8 µg/mL (≈ 28.6 µM); in data set [5] (Enterobacter cloacae), 32 µg/mL (≈ 115 µM); in [6] (Escherichia coli, ATCC25922), 16 µg/mL (≈ 57.3 µM). The same compound registered an MIC in [8] (Escherichia coli, ATCC25922) of 16 µg/mL (≈ 57.3 µM). In data set [7], the IC50 at 24 h was found to be 32.5 µg/mL (≈ 116 µM).
`C[C@@H](O)[C@H]1C(=O)N2C(C(=O)O)=C(S[C@@H]3CN[C@H](C(=O)N(C)C)C3)[C@H](C)[C@H]12` [Meropenem]: the MIC in data set [1] (F = A. baumannii B1931) is 8 µg/mL (≈ 20.9 µM); in data set [2] (D = KI. pneumoniae ATCC 700603) it was 0.5 µg/mL (≈ 1.3 µM); in data set [3] (E = P. aeruginosa ATCC 27853), >64 µg/mL; in data set [4] it was 4 µg/mL (≈ 10.4 µM); in data set [5] (C = Enterobacter cloacae B1966), 0.5 µg/mL (≈ 1.3 µM); in [6] (A = E. coli ATCC 25922) it was 0.5 µg/mL (≈ 1.3 µM). For the same compound, the MIC in [8] (B = E. coli EFFLUX del) worked out at 0.5 µg/mL (≈ 1.3 µM).
As for `CC(C)CC(N)C(=O)N[S+]([O-])c1ccccc1Cl` (stereo not drawn) [4.32], on E. Coli LeuRS, binding was characterised by a dissociation constant (Kd) of 4.61 ± 0.06 nM. The ΔG at E. Coli LeuRS is -11.37 ± 0.01 kcal/mol. For the same compound, on E. Coli LeuRS, the ΔH is -10.62 ± 0.25 kcal/mol. The MIC was 16 µg/mL (≈ 55.4 µM) in data set [1] (Acinetobacter baumannii); 16 µg/mL (≈ 55.4 µM) in data set [2] (setting [9]); > 64 µg/mL in data set [3] (setting [10]); 32 µg/mL (≈ 111 µM) in data set [4] (setting [11]); 16 µg/mL (≈ 55.4 µM) in data set [5] (Enterobacter cloacae); 4 µg/mL (≈ 13.9 µM) in data set [6] (Escherichia coli, ATCC25922). The same compound gave an MIC in data set [8] (Escherichia coli, ATCC25922) of 8 µg/mL (≈ 27.7 µM). Further, in data set [7], the IC50 at 24 h is > 64 µg/mL.
Regarding `CC(C)(O/N=C(\C(=O)N[C@@H]1C(=O)N2C(C(=O)[O-])=C(C[n+]3ccccc3)CS[C@H]12)c1csc(N)n1)C(=O)O` [Ceftazidime], the MIC in [1] (F = A. baumannii B1931) was 2 µg/mL (≈ 3.66 µM); in data set [2] (D = KI. pneumoniae ATCC 700603), >64 µg/mL; in data set [3] (E = P. aeruginosa ATCC 27853) it was >64 µg/mL; in data set [4] it was 16 µg/mL (≈ 29.3 µM); in data set [5] (C = Enterobacter cloacae B1966) it was 0.5 µg/mL (≈ 0.915 µM); in [6] (A = E. coli ATCC 25922), 0.25 µg/mL (≈ 0.457 µM). In [8] (B = E. coli EFFLUX del), the MIC turned out to be 0.25 µg/mL (≈ 0.457 µM).
Turning to `CC(C)CC(N)C(=O)N[S+]([O-])c1cccc(-c2ccn(C)n2)c1` (stereo not drawn) [4.26], the MIC in data set [1] (Acinetobacter baumannii) is > 64 µg/mL; in data set [2] (setting [9]), > 64 µg/mL; in [3] (setting [10]) it was > 64 µg/mL; in data set [4] (setting [11]), > 64 µg/mL; in data set [5] (Enterobacter cloacae), > 64 µg/mL; in data set [6] (Escherichia coli, ATCC25922) it was 64 µg/mL (≈ 191 µM). This compound registered an MIC in data set [8] (Escherichia coli, ATCC25922) of 64 µg/mL (≈ 191 µM). Besides, the IC50 at 24 h in data set [7] was > 64 µg/mL.

Source of the values: patent US11802110B2, “2-amino-N-(arylsulfinyl)-acetamide compounds as inhibitors of bacterial aminoacyl-tRNA synthetase” (priority 2016, dated 2023).
